Where “and” joins values, the source holds several entries; their conditions need not be identical. Equal values may be shown once. Calls of active or inactive are those of the source.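 The calls were made as follows: active = compounds giving half or more protection of infected cells from virus-caused growth loss, again on retest; inactive = the rest.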

The test system of the assay is CEM cells HIV-1 protection, formazan growth assay. Description: NCI AIDS Antiviral Assay. The following applies: for IC50: measured here: growth of uninfected CEM cells. Put shortly:
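Category rules: moderately active means at least 50% protection on retest, and confirmed active means 100% protection reproducibly. The underlying data came from a formazan growth assay in HIV-1-infected CEM cells.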

On to `COc1cc(C2C(Cl)C(=O)N2n2cnc3ccccc3c2=O)ccc1O` (centres undefined), for which the EC50 – broadly, the midpoint of the concentration-response curve – is above 676 µM and the IC50 (usually the concentration needed to halve the response being measured) was found to be 30.2 µM.
On the same counts, the results for `CC(C)(C)/C(O)=C\c1nc2cc(C(F)(F)F)ccc2[nH]c1=O` are above 200 µM and above 200 µM.
In the case of `N#Cc1c(N2CCCC2)[nH]c(=O)n(Cc2ccccc2)c1=S`, the EC50 is above 200 µM and the IC50 was determined as 115 µM.
On the same counts, the results for `CC(C#N)N(CCc1ccccc1)C(=O)c1ccccc1` (centres undefined) are above 200 µM and above 200 µM.
With `CN1C(c2ccccc2)CS(=O)(=O)CS1(=O)=O` (centres undefined), the result was inactive.
On to `COP(=O)(OC)C(N)Cc1c[nH]c2ccccc12` (centres undefined), for which the EC50 was above 200 µM and the IC50 was above 200 µM.
Regarding `C#C[C@@]1(O)CCCC2=CC3(CC[C@]21C)SCCS3`, the EC50 was above 200 µM and the IC50 is 89.1 µM.
`CC(CC/C=C/CO)C1CC(OS(=O)(=O)O)C2(O)C1(C)CCC1C3CCC(O)C(O)C3C(O)CC12O` (centres undefined): the outcome was inactive.
Still for that read-out and setting: under `CC(=O)OCC1OC(n2c(-c3cccs3)c3c(c(C#N)c2=S)-c2ccccc2CC3)C(OC(C)=O)C(OC(C)=O)C1OC(C)=O` (centres undefined) stands “inactive”.
In the case of `O=C(CCCN1CCC2(CC1)C(=O)NC(=O)N2c1ccccc1)c1ccc(F)cc1`, the EC50 is above 200 µM and the IC50 was above 200 µM.
With `Cc1[nH]c2nccn2c(=O)c1CCCl`, the EC50 is above 200 µM and the IC50 was determined as 11.5 µM.
For `N#C/C(=C\c1cc(Cl)ccc1O)C1CCC([N+](=O)[O-])CC1` (centres undefined), the EC50 was above 200 µM and the IC50 was 30.2 µM.
For `CC(C)CC(NC(=O)OCc1ccccc1)C(=O)NCCCCC(N)C(=O)NC(CCCCNC(=O)C(CC(C)C)NC(=O)OCc1ccccc1)C(=O)NC(CCCCNC(=O)C(CC(C)C)NC(=O)OCc1ccccc1)C(=O)NC(CCCCNC(=O)C(CC(C)C)NC(=O)OCc1ccccc1)C(=O)NC(CCCCNC(=O)C(CC(C)C)NC(=O)OCc1ccccc1)C(=O)NC(CCCCNC(=O)C(CC(C)C)NC(=O)OCc1ccccc1)C(=O)O` (centres undefined), the EC50 was above 100 µM and the IC50 is above 100 µM.
Consider `COc1ccc(NC(=O)c2c(N)c(C#N)c3n2CCC3)cc1`, for which the EC50 is above 200 µM and the concentration for half-maximal inhibition (IC50) is above 200 µM.
Turning to `Cc1cc(C(F)(F)F)nc2nc3ccccc3n12`, the EC50 was above 200 µM and the IC50 is above 200 µM.
`NC(=O)C1Cc2cc3c(cc21)OCO3` (centres undefined): the EC50 is above 200 µM and the IC50 was above 200 µM.
Turning to `COc1cc2c[n+]3ccc4cc(OC)c(OC)cc4c3cc2cc1O`, the result was inactive.
Consider `C(/C=N/NC1=NCCCCN1)=N\NC1=NCCCCN1`, for which the EC50 is above 200 µM and the IC50 is above 200 µM.
On to `Cc1cc(S(=O)(=O)NC2=NCCCN2)c(S)cc1Cl`, for which the EC50 was above 257 µM and the IC50 worked out at 64.6 µM.
With `O=C(O)c1ccc2c3c(n[se]c13)-c1ccccc1C2=O`, the EC50 is above 8.32 µM and the IC50 was above 8.32 µM.
In the case of `CCOC(=O)c1ccc(C(=O)OCC)n1-c1cc2cc(c1)CSCc1cc(cc(-n3c(C(=O)OCC)ccc3C(=O)OCC)c1)CSC2`, the EC50 was above 200 µM and the IC50 was above 200 µM.
On to `C/C(CC(=O)Nc1ccc(Cl)cc1)=N\NC(=O)C[n+]1ccccc1`, for which the EC50 was above 49 µM and the IC50 was above 49 µM.
As to `Cc1cc2c(C)cc3c(c2oc1=O)[C@@H](OC(=O)C12CCC(C)(C(=O)O1)C2(C)C)[C@@H](OC(=O)C12CCC(C)(C(=O)O1)C2(C)C)C(C)(C)O3` (some centres undefined), the EC50 is 0.692 µM and the half-maximal inhibitory concentration (IC50) came out at 6.92 µM.
Consider `CCCC[P+](CCCC)(CCCC)C(C(=O)OC)C(C(=O)OC)=C1SC(C(=O)OC)=C(C(=O)OC)S1` (centres undefined), for which the EC50 is above 200 µM and the 50% inhibitory concentration (IC50) was above 200 µM.
For the molecule `CC1C2=C(CN3C[C@H](C)CCC13)C1CC3C(C[C@@H](O)C4C[C@@H](O)CC[C@]34C)C1CC2` (some centres undefined), the EC50 is above 22.9 µM and the IC50 is above 22.9 µM.
Consider `COC(=O)C1C2C/C(=N\O)C1C2` (centres undefined), for which the EC50 is above 501 µM and the IC50 was above 501 µM.
With `c1ccc2c(c1)Cc1cn3c(nc1-2)nc1ccccc13`, the EC50 is above 200 µM and the IC50 stood at 129 µM.
Taken in the same sequence, the figures for `CC(=O)OC1COC(n2c(=S)n(-c3ccc(C)cc3)c(=O)c3ccccc32)C(OC(C)=O)C1OC(C)=O` (centres undefined) were above 25.7 µM and above 25.7 µM.
On the same counts, the results for `O=S(=O)(O)c1cc(N=Nc2ccc(O)c3ccccc23)ccc1/C=C/c1ccc(N=Nc2ccc(O)c3ccccc23)cc1S(=O)(=O)O` are 13.5 µM and 50.1 µM.
`CCCCCCCCCCCC(O)S(=O)(=O)O` (centres undefined): the EC50 is above 200 µM and the IC50 was determined as 102 µM.
On the same counts, the results for `COc1cc(CCCOC(=O)/C=C/c2ccc(O)c(O)c2)cc(O)c1O` are above 200 µM and above 200 µM.
On the same counts, the results for `N#C/C(=C/c1ccc2c(c1)OCO2)C(=O)c1ccccc1` are above 36.3 µM and above 36.3 µM.
Taken in the same sequence, the figures for `Brc1ccc(C2CC3(c4ccccc4)ON=C(c4ccccc4)N3c3ccccc3S2)cc1` (centres undefined) were above 200 µM and 174 µM.
For `CCOC(=O)c1c2cccccc-2nc1Nc1ccccc1N1C=CC(C)C(C(=O)OC)=C1C(=O)OC` (centres undefined), the EC50 was above 200 µM and the IC50 is 129 µM.
Consider `Cc1ccccc1C1SCc2nc3ccccc3n21` (centres undefined), for which the outcome was inactive.
In the case of `CCN1CCC(O)(/C=C/c2ccc(Cl)cc2)C(C(=O)/C=C/c2ccc(Cl)cc2)C1` (centres undefined), the EC50 was above 21.4 µM and the IC50 is above 21.4 µM.
On to `NCCNCCNCc1c2ccccc2c(CNCCNCCN)c2ccccc12`, for which the EC50 is 5.89 µM and the IC50 turned out to be 39.8 µM.
On the same counts, the results for `CN(C)c1ccc(C2NCCc3c2[nH]c2ccccc32)cc1` (centres undefined) are above 200 µM and 25.1 µM.
On to `COc1ccc([N+](=O)[O-])c2c(NCCCN(C)C)ccnc12`, for which the EC50 is above 200 µM and the IC50 came to 4.47 µM.
On to `CCOC(=O)c1c(-c2ccc(OC)c(O)c2)c(C#N)c(=S)n(C2OC(COC(C)=O)C(OC(C)=O)C(OC(C)=O)C2OC(C)=O)c1-c1ccccc1` (centres undefined), for which the EC50 was above 200 µM; the IC50 is 102 µM and 56.2 µM.
In the case of `COc1ccc(/C=C2\C(=O)NC(=O)c3ccccc32)cc1OC`, the EC50 was above 60.3 µM and the IC50 is 31.6 µM.
For `NCCNc1ccc([N+](=O)[O-])c2c(=O)c3ccccc3[nH]c12`, the result was inactive.
For the molecule `O=C1/C(=C/c2ccccc2)CCCC/C1=C\c1ccccc1`, the EC50 was above 6.92 µM and the IC50 was above 6.92 µM.
Take `COc1cc2ccnc3c2c(c1OC)-c1ccccc1C3=O`: the result was inactive.
With `O=C1NC(=O)C(CCC(=O)c2cccc3ccccc23)C(=O)N1`, the EC50 is above 60.3 µM and the IC50 was above 60.3 µM.
`CC1=NOC(C)(O)/C1=N/O` (centres undefined): the EC50 is above 200 µM and the IC50 stood at 158 µM.
Regarding `CC1OC(OC2C(O)COC(OC3C(C)OC(OC4C(OC(=O)[C@]56CCC(C)(C)C[C@@H]5C5=CCC7[C@@]8(C)C[C@H](O)[C@H](OC9OC(CO)C(O)C(O)C9O)[C@@](C)(CO)[C@@H]8CC[C@@]7(C)[C@]5(C)CC6)OCC(O)C4O)C(O)C3OC3OCC(O)(CO)C3O)C2O)C(O)C(O)C1O` (some centres undefined), the EC50 is above 30.2 µM and the IC50 is 17.8 µM.
On the same counts, the results for `COC(=O)c1ccc(/C=C2\Cc3ccccc3C2=O)cc1` are above 200 µM and above 200 µM.

The values are drawn from PubChem BioAssay AID179 (DTP/NCI, 2004).
